Reference: patent publication US20200179488A1, “Secretin Receptor Agonists to Treat Diseases or Disorders of Energy Homeostasis” (Technische Universität München, priority 2016, published 2020)

What was measured:
adrenergic β-receptors = test: SCT- and ISO-stimulated respiration in primary brown adipocytes after propranolol pretreatment; assay type: cell-based, Mus musculus
Method: SCT- and ISO-stimulated respiration after 1 h pretreatment with different concentrations propranolol, a non-selective blocker of adrenergic β-receptors.
(§1) Method: To test whether SCT can activate thermogenesis in brown adipocytes, we measured UCP1-mediated uncoupled respiration in cultured adherent intact primary brown adipocytes, according to a protocol recently established in our lab (Li Y, Fromme T, Schweizer S, Schöttl T, Klingenspor M. EMBO Rep. 2014 October; 15(10):1069-76. doi: 10.15252/embr.201438775; Li Y, Fromme T, Klingenspor M. Meaningful respirometric measurements of UCP1-mediated thermogenesis. Biochimie. 2017 March; 134:56-61. doi: 10.1016/j.biochi.2016.12.005.). The cellular oxygen consumption rate (OCR) of primary adipocytes was determined using an XF96 Extracellular Flux Analyzer (Seahorse Bioscience). Briefly, primary adipocytes were cultured and differentiated in XF96 microplates. […]
All respiration assays were performed in the presence of bovine serum albumin to buffer free fatty acid levels in the respiration medium. Basal respiration was measured in untreated cells. […] UCP1 mediated uncoupled respiration was determined after isoproterenol or secretin stimulation. Maximum respiratory capacity was assessed after FCCP (Sigma-Aldrich) addition (1 μM). […] Oxygen consumption rates were automatically calculated by the Seahorse XF-96 software. […]

[1] = molecular target: secretin receptor (mouse, on primary brown adipocytes) (mouse) (UniProt Q5FWI2); test: cell-based or functional assay
UCP1 expression [2] = test: UCP1 mRNA expression (qRT-PCR) in primary adipocytes from inguinal white adipose tissue; assay type: cell-based, Mus musculus; conditions: 0.1 μM secretin or 0.5 μM isoproterenol, 6 hours, normalized to TFIIB (FIG. 4A)
Method: (§2) For culturing primary adipocytes male 129S1/SvImJ mice ([…] or UCP1-KO mice and wildtype littermates) at the age of 5-6 weeks were used for the dissection of inguinal and epidydimal white adipose tissue and interscapular brown adipose tissue depots. The tissue was carefully minced and treated with collagenase for 45 min at 37° C. The homogenate was filtered through a 250 μm nylon mesh and centrifuged at 500 g to collect the stromal vascular fraction (SVF). The SVF cell pellet was rinsed and seeded into XF96 V3-PS cell culture microplate (Seahorse Bioscience). After reaching confluency, induction medium containing 10% fetal bovine serum (FBS), 0.5 mM isobutylmethylxanthine, 125 nM indomethacin, 1 mM dexamethasone, 850 nM insulin and 1 nM T3 was added. […] Respiration was measured on day 7 of differentiation. […] RNA was eluted in 50 μl nuclease-free water and RNA concentration was determined spectrophotometrically (Infinite 200 PRO NanoQuant, Tecan, Männedorf/Switzerland). Reverse transcription into cDNA was performed with 500 ng RNA in a final volume of 10 μl (Quantitect Reverse Transcription Kit, Quiagen, Hilden/Germany). qRT-PCR was conducted on 384 well plates in a total volume of 12.5 μl comprising 6.25 μl SensiMix SYBR No-ROX (Bioline, London/UK), 250 nM forward and reverse primers, and 1 μl template cDNA (LightCycler 480 System, Roche Diagnostics, Rotkreuz/Switzerland). […]

UCP1 expression [3] = test: UCP1 mRNA expression (qRT-PCR) in primary adipocytes from interscapular brown adipose tissue; assay type: cell-based, Mus musculus; conditions: 0.1 μM secretin or 0.5 μM isoproterenol, 6 hours, normalized to TFIIB (FIG. 4B)
Method: as §2

[4] = tested on: primary brown adipocytes from UCP1 knockout mice; test: Microplate respirometry (oxygen consumption rate) in primary brown adipocytes from UCP1 knockout mice; assay type: cell-based, Mus musculus
Method: For culturing primary adipocytes male 129S1/SvImJ mice ([…] or UCP1-KO mice and wildtype littermates) at the age of 5-6 weeks were used for the dissection of inguinal and epidydimal white adipose tissue and interscapular brown adipose tissue depots. The tissue was carefully minced and treated with collagenase for 45 min at 37° C. The homogenate was filtered through a 250 μm nylon mesh and centrifuged at 500 g to collect the stromal vascular fraction (SVF). The SVF cell pellet was rinsed and seeded into XF96 V3-PS cell culture microplate (Seahorse Bioscience). After reaching confluency, induction medium containing 10% fetal bovine serum (FBS), 0.5 mM isobutylmethylxanthine, 125 nM indomethacin, 1 mM dexamethasone, 850 nM insulin and 1 nM T3 was added. After 2 days of induction, cells were maintained in differentiation media (10% FBS, 850 nM insulin and 1 nM T3). Medium was changed every two days. Respiration was measured on day 7 of differentiation. For determination of mRNA levels cells were stimulated at the 7th day of differentiation for 6 hours with secretin (rat, Tocris, Art Nr 1919) or isoproterenol (Sigma-Aldrich, Art Nr. 16504-100MG) and harvested subsequently. Oxygen consumption rate (OCR) was measured at 37° C. using a microplate respirometer (XF96 extracellular flux analyzer, Seahorse Bioscience). At day 7, the differentiation medium was replaced with prewarmed, unbuffered assay medium (DMEM basal medium supplemented with 25 mM glucose, 2 mM sodium pyruvate, 31 mM NaCl, 2 mM GlutaMax and 15 mg/l phenol red, pH 7.4) containing 2% of essentially fatty acid free bovine serum albumin (BSA), and incubated at 37° C. in a room air incubator for 1 h. Basal respiration was measured in untreated cells. […] Maximum respiratory capacity was assessed after FCCP (Sigma-Aldrich) addition (1 μM). […] Oxygen consumption rates were calculated using the Seahorse XF-96 software. […] For induction of OCR by isoproterenol, secretin or FCCP the highest values measured after addition of the respective molecule was used. The “OCR in % of basal OCR” and “OCR in % of FCCP OCR” were calculated as follows: Method: To test whether SCT can activate thermogenesis in brown adipocytes, we measured UCP1-mediated uncoupled respiration in cultured adherent intact primary brown adipocytes, according to a protocol recently established in our lab (Li Y, Fromme T, Schweizer S, Schöttl T, Klingenspor M. EMBO Rep. 2014 October; 15(10):1069-76. doi: 10.15252/embr.201438775; […]. Meaningful respirometric measurements of UCP1-mediated thermogenesis. Biochimie. 2017 March; 134:56-61. doi: 10.1016/j.biochi.2016.12.005.). The cellular oxygen consumption rate (OCR) of primary adipocytes was determined using an XF96 Extracellular Flux Analyzer (Seahorse Bioscience). […]

primary brown adipocytes = test: Microplate respirometry (oxygen consumption rate) in differentiated primary brown adipocytes of wildtype mice; assay type: cell-based, Mus musculus
Method: For culturing primary adipocytes male 129S1/SvImJ mice ([…] or UCP1-KO mice and wildtype littermates) at the age of 5-6 weeks were used for the dissection of inguinal and epidydimal white adipose tissue and interscapular brown adipose tissue depots. The tissue was carefully minced and treated with collagenase for 45 min at 37° C. The homogenate was filtered through a 250 μm nylon mesh and centrifuged at 500 g to collect the stromal vascular fraction (SVF). The SVF cell pellet was rinsed and seeded into XF96 V3-PS cell culture microplate (Seahorse Bioscience). After reaching confluency, induction medium containing 10% fetal bovine serum (FBS), 0.5 mM isobutylmethylxanthine, 125 nM indomethacin, 1 mM dexamethasone, 850 nM insulin and 1 nM T3 was added. After 2 days of induction, cells were maintained in differentiation media (10% FBS, 850 nM insulin and 1 nM T3). Medium was changed every two days. Respiration was measured on day 7 of differentiation. For determination of mRNA levels cells were stimulated at the 7th day of differentiation for 6 hours with secretin (rat, Tocris, Art Nr 1919) or isoproterenol (Sigma-Aldrich, Art Nr. 16504-100MG) and harvested subsequently. Oxygen consumption rate (OCR) was measured at 37° C. using a microplate respirometer (XF96 extracellular flux analyzer, Seahorse Bioscience). At day 7, the differentiation medium was replaced with prewarmed, unbuffered assay medium (DMEM basal medium supplemented with 25 mM glucose, 2 mM sodium pyruvate, 31 mM NaCl, 2 mM GlutaMax and 15 mg/l phenol red, pH 7.4) containing 2% of essentially fatty acid free bovine serum albumin (BSA), and incubated at 37° C. in a room air incubator for 1 h. Basal respiration was measured in untreated cells. Coupled respiration was inhibited by oligomycin treatment (5 μM). […] Maximum respiratory capacity was assessed after FCCP (Sigma-Aldrich) addition (1 μM). Finally, mitochondrial respiration was blocked by antimycin A (Sigma-Aldrich) (5 μM) treatment and the residual OCR was considered to be due to non-mitochondrial reactions. Oxygen consumption rates were calculated using the Seahorse XF-96 software. Data were exported and reconstructed in GraphPad Prism 4.0 software. For each condition the lowest OCR after antimycin A addition was subtracted from all other values. Respiration rates following oligomycin addition were defined as basal OCR. For induction of OCR by isoproterenol, secretin or FCCP the highest values measured after addition of the respective molecule was used. The “OCR in % of basal OCR” and “OCR in % of FCCP OCR” were calculated as follows: Method: To test whether SCT can activate thermogenesis in brown adipocytes, we measured UCP1-mediated uncoupled respiration in cultured adherent intact primary brown adipocytes, according to a protocol recently established in our lab (Li Y, Fromme T, Schweizer S, Schöttl T, Klingenspor M. EMBO Rep. 2014 October; 15(10):1069-76. doi: 10.15252/embr.201438775; […]. Meaningful respirometric measurements of UCP1-mediated thermogenesis. Biochimie. 2017 March; 134:56-61. doi: 10.1016/j.biochi.2016.12.005.). The cellular oxygen consumption rate (OCR) of primary adipocytes was determined using an XF96 Extracellular Flux Analyzer (Seahorse Bioscience). Briefly, primary adipocytes were cultured and differentiated in XF96 microplates. At day 7 of differentiation, cells were washed once with prewarmed, unbuffered assay medium (DMEM basal medium supplemented with 25 mM glucose, 31 mM NaCl, 2 mM GlutaMax and 15 mg/l phenol red, pH 7.4) (basal assay medium) and then the medium was replaced with basal assay medium containing 1-2% essentially fatty acid free bovine serum albumin (BSA), and incubated at 37° C. in a room air incubator for 1 h. The drug injections ports of the sensor cartridges were loaded with the assay reagents at 10× in basal assay medium (no BSA). All respiration assays were performed in the presence of bovine serum albumin to buffer free fatty acid levels in the respiration medium. […]

Protein Kinase A = test: SCT-stimulated respiration in primary brown adipocytes after pretreatment with the PKA inhibitor H89; assay type: cell-based, Mus musculus; conditions: H89 50 μM pretreatment (FIG. 10F)
Method: F: Thermogenic effect of SCT depends on Protein Kinase A activity. Fold increase of basal leak respiration after stimulation with ISO, SCT and vehicle (assay medium) w/o proteinkinase A inhibitor H89 (50 μM). Inhibitor was injected together with olgio prior to addition of stimulators.
as §1, with “Bioscience).” for “Bioscience). Briefly, primary adipocytes were cultured and differentiated in XF96 microplates.”
All respiration assays were performed in the presence of bovine serum albumin to buffer free fatty acid levels in the respiration medium. Basal respiration was measured in untreated cells. […] UCP1 mediated uncoupled respiration was determined after isoproterenol or secretin stimulation. Maximum respiratory capacity was assessed after FCCP (Sigma-Aldrich) addition (1 μM). […]

Chain of UniProt Q5FWI2 (Q5FWI2 29-447): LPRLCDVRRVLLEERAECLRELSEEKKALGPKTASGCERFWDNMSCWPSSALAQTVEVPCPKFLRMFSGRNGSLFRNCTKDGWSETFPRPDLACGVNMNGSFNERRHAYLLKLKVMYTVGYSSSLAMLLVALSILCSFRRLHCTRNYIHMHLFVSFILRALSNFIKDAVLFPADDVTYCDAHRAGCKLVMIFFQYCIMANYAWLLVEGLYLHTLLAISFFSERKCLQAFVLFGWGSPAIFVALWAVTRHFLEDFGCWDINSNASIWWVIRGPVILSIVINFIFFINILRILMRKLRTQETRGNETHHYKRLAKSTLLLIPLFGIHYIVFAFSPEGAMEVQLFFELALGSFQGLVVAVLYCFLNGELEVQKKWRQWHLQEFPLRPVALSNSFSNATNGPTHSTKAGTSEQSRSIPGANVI

Molecule: CC(C)NCC(O)COc1cccc2ccccc12 (stereo not shown) [propranolol]
- effect on SCT stimulated respiration (adrenergic β-receptors; 1 h pretreatment with propranolol (1 μM; different concentrations in FIG. 10D)): did not attenuate SCT stimulated respiration
- effect on ISO stimulated respiration (adrenergic β-receptors; 1 h pretreatment with propranolol, dose dependent (FIG. 10D)): blocking the effect of ISO

Molecule: secretin (rat, Tocris, Art Nr 1919) (from UniProt P11384 33-59) (peptide)
- oxygen consumption rate (OCR) in primary brown adipocytes, increase above basal OCR, 0.5 µM secretin (% above basal OCR) [1]: 200
- uncoupled OCR in primary brown adipocytes as a share of maximal uncoupled OCR induced by FCCP, 0.5 µM secretin (% of maximal uncoupled OCR) [1]: 75

Molecule: CC(C)NCC(O)c1ccc(O)c(O)c1 (stereo not shown) [isoproterenol, reference compound]
- UCP1 mRNA expression in white adipocytes versus PBS (UCP1 expression [2]): induction of UCP1 expression
- UCP1 mRNA expression in brown adipocytes versus PBS (UCP1 expression [3]): induced UCP1 expression to a similar level as secretin
- induction of respiration in cells from UCP1 knockout mice ([4]; 129/S1 background, FIG. 3): lacking
- response of respiration in UCP1 knockout brown adipocytes ([4]; SCT 10 nM, ISO 500 nM (FIG. 10B)): did not respond
- increase of OCR above basal OCR (primary brown adipocytes; 0.5 μM, after oligomycin, day 7 of differentiation (FIG. 2B)): about 200%
- uncoupled OCR as share of maximal uncoupled OCR induced by FCCP (primary brown adipocytes; 0.5 μM, day 7 of differentiation (FIG. 2C)): about 75%
- induction of oxygen consumption in cells from wildtype control mice (primary brown adipocytes; 129/S1 background, FIG. 3): increase in oxygen consumption
- stimulation of UCP1-mediated thermogenesis (uncoupled respiration) (primary brown adipocytes; SCT 10 nM, ISO 500 nM, N=5 (FIG. 10A)): activate UCP1-dependent thermogenesis

Molecule: O=S(=O)(NCCNCC=Cc1ccc(Br)cc1)c1cccc2cnccc12 [H89, N-[2-[[3-(4-Bromophenyl)-2-propenyl]amino]ethyl]-5-isoquinolinesulfonamide]
- effect on the thermogenic effect of SCT (Protein Kinase A): completely blocked the thermogenic effect of SCT
